Where two headings read alike, the source gives them in different places. Starred links: 1 amine or outer side, 2 acyl side, 3 side chain; linkers in the order of their positions; H or OH if unused. Non-standard residues stand in square brackets, D forms with d. Residues, ends and D or L forms follow the SMILES beside them. *: point of attachment. DOTA = O=C(O)CN1CCN(CC(=O)O)CCN(CC(=O)*)CCN(CC(=O)O)CC1; Sta = CC(C)C[C@H](N)[C@@H](O)CC(=O)O; Bta = N[C@@H](Cc1csc2ccccc12)C(=O)O; X1 = O=C(CN1CCC(N[*:1])CC1)[*:2]
Legend:
GRPR = target: T1, GRPR (Homo sapiens, UniProt P30550); test: Determination of GRPR affinity (IC50), competition with [D-3-[125I]I-Tyr6]MJ9 on PC-3 cells; format: binding
T1 construct: endogenous in cells; host or cells: PC-3 cells
Procedure: The reference ligand for IC50 studies ([D-3-[^125I]I-Tyr^6]MJ9) is prepared according to a previously published procedure. Briefly, 0.2 mg of [D-Tyr^6]MJ9 are dissolved in 20 μL Tracepur water and 280 μL TRIS buffer (25 mm TRIS HCl, 0.4 M NaCl, pH=7.9). After addition of the solution to a vial containing 150 μg Iodo-Gen® (1,3,4,6-Tetrachloro-3α,6α-diphenylglycouril, surface-bound), 5.0 μL (16 MBq) [^125I]Nal(74 TBq/mmol, 3.1 GBq/mL, 40 mM NaOH, Hartmann Analytic, Braunschweig, Germany) are added.
The GRPR-positive PC-3 cells are cultured in Dublecco modified Eagle medium/Nutrition Mixture F-12 with Glutamax-I (1:1) (Invitrigon), supplemented with 10% fetal calf serum and maintained at 37° C. in a humidified 5% CO2 atmosphere.
After removal of the culture medium, the cells are washed once with 500 μL of HBSS (Hank's balanced salt solution, Biochrom, Berlin, Germany, with addition of 1% bovine serum albumin (BSA)) and left in 200 μL HBSS (1% BSA) for 9 min at room temperature for equilibration. Next, 25 μL per well of solutions, containing either HBSS (1% BSA) as control or the respective ligand in increasing concentration (10^−10 M-10^−4 M in HBSS), are added with subsequent addition of 25 μL of [D-3-[^125I]I-Tyr^6]MJ9 (2.0 nM) in HBSS (1% BSA).
All experiments are performed in triplicate for each concentration. After 2 h incubation at room temperature, the experiment is terminated by removal of the medium and consecutive rinsing with 300 μL of HBSS. The media of both steps are combined in one fraction and represent the amount of free radiolabeled reference. Afterwards, the cells are lysed with 300 μL of 1 M NaOH for at least 15 min and united with the 300 μL NaOH of the following washing step. Quantification of bound and free radiolabeled reference is accomplished in a γ-counter.
IC50 determination for each ligand was repeated twice.

[1] = n-Octanol-PBS distribution coefficient, log D7.4; format: physicochemical; settings: 177Lu-labeled ligand; n-octanol/PBS pH 7.4
Procedure: Approximately 1 MBq of the labeled tracer was dissolved in 1 mL of a 1:1 mixture (v/v) of phosphate buffered saline (PBS, pH=7.4) and n-octanol in an Eppendorf tube. After vigorous mixing of the suspension for 3 min at room temperature, the vial was centrifuged at 9000 rpm for 5 min (Biofuge 15, Heraus Sepatech, Osterode, Germany) and 200 μL aliquots of both layers were measured in a γ-counter. The experiment was repeated at least four times.

[2] = Plasma studies: metabolic stability in vitro in human plasma (radio RP-HPLC); format: in vitro ADME; settings: for remaining intact tracer in chromatogram: human, plasma, 2 h
Summary of the method: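 Radiotracer incubated in human or murine plasma at 37° C. immediately after labeling, for 72±2 h or 6±0.5 h. Proteins precipitated with ice-cold EtOH and MeCN and centrifuged. Supernatant analysed by radio RP-HPLC.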

PC-3 cells = test: Internalization into PC-3 cells; format: cell-based; settings: c = 1 nM, 1 h, 37° C., corrected for non-specific binding (10^-3 M [natLu]RM2)
Procedure: For internalization studies, PC-3 cells are harvested 24±2 h before the experiment and seeded in 24-well plates (1.5×10^5 cells/well, 1 mL). Subsequent to the removal of the culture medium, the cells are washed once with 500 μL DMEM/F-12 (5% BSA) and left to equilibrate at 37° C. for at least 15 min in 200 μL DMEM/F-12 (5% BSA). […] Next, 25 μL of the ^125I/^177Lu-labeled GRPR ligand (10 nm) is added and the cells are incubated at 37° C. for 60 min.
The experiment is terminated by placing the 24-well plate on ice for 1 min and consecutive removal of the medium. Each well is rinsed with 300 μL ice-cold PBS and the fractions from these first two steps are combined, representing the amount of free radiolabeled reference. Removal of surface bound activity is accomplished by incubation of the cells with 300 μL of ice-cold Acid Wash solution (0.02 M NaOAc, pH=5.0) for 10 min at room temperature and rinsed again with 300 μL of ice-cold PBS. The internalized activity is determined by incubation of the cells in […] NaOH (1 M) and the combination with the fraction of a subsequent washing step with 300 μL NaOH (1 M).
Each experiment (control and blockade) is performed sixfold. Free, surface bound and internalized activity is quantified in a γ-counter. Data is corrected for non-specific internalization.

[3] = tested on: PC-3 tumor-bearing CB17-SCID mice; test: Biodistribution in PC-3 tumor-bearing CB17-SCID mice; format: in vivo; settings: 177Lu-labeled, 24 h p.i.
Procedure: (§1) All animal experiments were conducted in accordance with general animal welfare regulations in Germany (German animal protection act, as amended on 18 May 2018, Art. 141 G v. 29.3.2017 | 626, approval no. ROB-55.2-2532.Vet_02-18-109) and the institutional guidelines for the care and use of animals. To establish tumor xenografts, PC-3 cells (5×10^6 cells per 200 μL) were suspended in a 1:1 mixture (v/v) of Dulbecco's modified eagle's medium/Ham's F-12 (DMEM/F-12) with Glutamax-I (1:1) and Cultrex® Basement Membrane Matrix Type 3 (Trevigen Inc., Gaithersburg, MD, USA) and inoculated subcutaneously onto the right shoulder of 6-10 weeks old female CB17-SCID mice (Charles River Laboratories International Inc., Sulzfeld, Germany). Mice were used for experiments when tumor volume was 125-500 mm^3 (2-3 weeks after inoculation).
Approximately 1-5 MBq ([…]) of the radiolabeled GRPR antagonists were injected into the tail vein of PC-3 tumor-bearing mice and sacrificed at 1, 4 or 24 h p.i. (n=4). Selected organs were removed, weighted and measured in a γ-counter (Perkin Elmer, Waltham, MA, USA).

[4] = tested on: PC-3 tumor-bearing CB17-SCID mice; settings: mouse, in vivo
Procedure: as §1
Imaging studies were performed at a MILabs VECTor^4 small-animal SPECT/PET/OI/CT device (MILabs, Utrecht, the Netherlands). Data were reconstructed using the MILabs Rec software (version 10.02) and a pixel-based Similarity-Regulated Ordered Subsets Expectation Maximization (SROSEM) algorithm, followed by data analysis using the PMOD4.0 software (PMOD TECHNOLOGIES LLC, Zurich, Switzerland). […] Static images were recorded within 1 and 28 h p.i. with an acquisition time of 45-60 min using the HE-GP-RM collimator and a step-wise multi-planar bed movement.

[5] = IC50 [nM] ± SD (n = 3), ^177Lu-labeled, Table 1C, GRPR affinity
[6] = IC50 ± SD (n = 3), Table 3, [D-3-[125I]I-Tyr6]MJ9 (c = 0.2 nM), 2 h, r.t., HBSS + 1% BSA

T1 sequence (P30550 whole entry): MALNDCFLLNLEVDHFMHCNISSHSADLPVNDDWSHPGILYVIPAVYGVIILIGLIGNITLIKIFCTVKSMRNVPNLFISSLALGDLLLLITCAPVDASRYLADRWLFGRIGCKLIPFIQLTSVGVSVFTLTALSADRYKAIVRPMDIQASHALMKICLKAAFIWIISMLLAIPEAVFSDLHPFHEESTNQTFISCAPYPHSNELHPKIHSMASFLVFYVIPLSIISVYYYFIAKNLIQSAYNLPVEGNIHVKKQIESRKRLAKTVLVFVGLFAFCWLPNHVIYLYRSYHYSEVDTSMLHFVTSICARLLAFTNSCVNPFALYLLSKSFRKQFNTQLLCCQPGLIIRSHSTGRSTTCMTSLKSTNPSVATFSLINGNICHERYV

Row | SMILES | IC50 (GRPR; [5]) [nM] | log D7.4 ± SD (n = 8) [1] | Amount of intact tracer after incubation in human plasma for 72 ± 2 h (n = 2) [2] | metabolite, first-eluting peak in chromatogram [2] [%] | metabolite, second peak in chromatogram [2] [%] | remaining intact tracer in chromatogram [2] [%] | Specific internalization (mean ± SD, n = 6) (PC-3 cells) | IC50 (GRPR; [6]) [nM] | Amount of intact tracer after incubation in human plasma for 72 ± 2 h (n = 2) ([2]; Table 1C, 177Lu-labeled, 37° C., 72 ± 2 h, in % (unit assumed)) | amount of intact tracer (in vitro stability), mean ± SD ([2]; human plasma, 37° C., 72±2 h) [%] | pancreas retention ([3]; 100 pmol, FIG. 11) | tumor retention ([3]; 100 pmol, FIGS. 11, 18) | tumor-to-background ratios (tumor-to-blood, tumor-to-muscle) ([3]; FIG. 12) | clearance of background activity in imaging [4]
1 | CC(C)C[C@H](NC(=O)C[C@H](O)[C@H](CC(C)C)NC(=O)[C@H](Cc1c[nH]cn1)NC(=O)CNC(=O)[C@@H](NC(=O)[C@H](C)NC(=O)[C@H](Cc1c[nH]c2ccccc12)NC(=O)[C@H](CCO)NC(=O)[C@@H](Cc1ccccc1)NC(=O)CN1CCC(NC(=O)CN2CCN(CC(=O)O)CCN(CC(=O)O)CCN(CC(=O)O)CC2)CC1)C(C)C)C(N)=O [DOTA-[Hse^7]MJ9] | 19.7 ± 1.6 | −2.25 ± 0.06 | 40.1 ± 1.4 | 30 | 8 | 56 | 1.40 ± 0.16 % of the used activity |  |  |  |  |  |  | 
2 | CC(C)CC(CC(C)C)NC(=O)[C@H](Cc1cnc[nH]1)NC(=O)CNC(=O)[C@@H](NC(=O)[C@H](C)NC(=O)[C@H](Cc1c[nH]c2ccccc12)NC(=O)[C@H](CCC(N)=O)NC(=O)[C@@H](Cc1ccccc1)NC(=O)COCC(=O)Nc1ccc(CNC(=O)CN2CCN(CC(=O)O)CCN(CC(=O)O)CCN(CC(=O)O)CC2)cc1)C(C)C [NeoBOMB1, reference compound] | 4.2 ± 0.1 | −0.57 ± 0.03 |  |  |  |  | 13.91 ± 0.64 % of the used activity | 4.22 ± 0.14 | 60.8 ± 1.2 | 60.8±1.2 | high pancreas retention | high tumor retention | minor tumor-to-background ratios than the reference | 
3 | CC(C)C[C@H](NC(=O)C[C@H](O)[C@H](CC(C)C)NC(=O)[C@H](Cc1c[nH]cn1)NC(=O)CNC(=O)[C@@H](NC(=O)[C@H](C)NC(=O)[C@H](Cc1csc2ccccc12)NC(=O)[C@H](CCC(N)=O)NC(=O)[C@@H](Cc1ccccc1)NC(=O)CN1CCC(NC(=O)CN2CCN(CC(=O)O)CCN(CC(=O)O)CCN(CC(=O)O)CC2)CC1)C(C)C)C(N)=O [DOTA-[Bta^8]MJ9] ({DOTA}-[X1][dF]Q[Bta]AVGH[Sta]L-NH2) | 4.6 ± 0.2 | −1.81 ± 0.02 | 18.3 ± 2.3 | 79 | 8 | 12 | 2.26 ± 0.18 % of the used activity | 4.63 ± 0.23 |  |  |  |  |  | 
4 | CC(C)C[C@H](NC(=O)C[C@H](O)[C@H](CC(C)C)NC(=O)[C@H](Cc1c[nH]cn1)NC(=O)CNC(=O)[C@@H](NC(=O)[C@H](C)NC(=O)[C@](C)(Cc1c[nH]c2ccccc12)NC(=O)[C@H](CCC(N)=O)NC(=O)[C@@H](Cc1ccccc1)NC(=O)CN1CCC(NC(=O)CN2CCN(CC(=O)O)CCN(CC(=O)O)CCN(CC(=O)O)CC2)CC1)C(C)C)C(N)=O [AMTG] |  | −2.28 ± 0.06 | 77.6 ± 10.1 | 2 | 5 | 92 |  |  |  |  |  |  |  | cleared less rapid

Reference: US20250339567A1, “COMPOUNDS WITH IMPROVED PHARMACOKINETICS FOR IMAGING AND THERAPY OF CANCER” (priority 2019, published 2025)
